Source: PubChem BioAssay (NCI)
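Test compounds were applied to cells in 96-well plates for 48 hours at 5 doses. GI50 = concentration required for 50% inhibition of growth. TGI is the concentration that stops growth completely.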

Tests used:
Assay in all cases: NCI-60 cell line screen, 48 h
786-0 renal = tested on: 786-0 renal
A498 renal = tested on: A498 renal
ACHN renal = tested on: ACHN renal
BT-549 breast = tested on: BT-549 breast
CCRF-CEM leukemia = tested on: CCRF-CEM leukemia
COLO 205 colon = tested on: COLO 205 colon
DU-145 prostate = tested on: DU-145 prostate
EKVX NSCLC = tested on: EKVX NSCLC
HCC-2998 colon = tested on: HCC-2998 colon
HCT-116 colon = tested on: HCT-116 colon
HCT-15 colon = tested on: HCT-15 colon
HL-60(TB) leukemia = tested on: HL-60(TB) leukemia
HOP-62 NSCLC = tested on: HOP-62 NSCLC
HOP-92 NSCLC = tested on: HOP-92 NSCLC
HS 578T breast = tested on: HS 578T breast
HT29 colon = tested on: HT29 colon
IGROV1 ovarian = tested on: IGROV1 ovarian
K-562 leukemia = tested on: K-562 leukemia
KM12 colon = tested on: KM12 colon
LOX IMVI melanoma = tested on: LOX IMVI melanoma
M14 melanoma = tested on: M14 melanoma
MALME-3M melanoma = tested on: MALME-3M melanoma
MCF7 breast = tested on: MCF7 breast
MDA-MB-231 breast = tested on: MDA-MB-231 breast
MDA-MB-435 = tested on: MDA-MB-435
MOLT-4 leukemia = tested on: MOLT-4 leukemia
NCI-H226 lung = tested on: NCI-H226 lung
NCI-H23 lung = tested on: NCI-H23 lung
NCI-H460 lung = tested on: NCI-H460 lung
NCI-H522 lung = tested on: NCI-H522 lung
NCI/ADR-RES ovarian = tested on: NCI/ADR-RES ovarian
OVCAR-3 ovarian = tested on: OVCAR-3 ovarian
OVCAR-4 ovarian = tested on: OVCAR-4 ovarian
OVCAR-5 ovarian = tested on: OVCAR-5 ovarian
OVCAR-8 ovarian = tested on: OVCAR-8 ovarian
PC-3 prostate = tested on: PC-3 prostate
SF-268 CNS = tested on: SF-268 CNS
SF-295 CNS = tested on: SF-295 CNS
SF-539 CNS = tested on: SF-539 CNS
SK-MEL-2 melanoma = tested on: SK-MEL-2 melanoma
SK-MEL-28 melanoma = tested on: SK-MEL-28 melanoma
SK-MEL-5 melanoma = tested on: SK-MEL-5 melanoma
SK-OV-3 ovarian = tested on: SK-OV-3 ovarian
SN12C renal = tested on: SN12C renal
SNB-19 CNS = tested on: SNB-19 CNS
SNB-75 CNS = tested on: SNB-75 CNS
SR leukemia = tested on: SR leukemia
SW-620 colon = tested on: SW-620 colon
T-47D breast = tested on: T-47D breast
TK-10 renal = tested on: TK-10 renal
U251 CNS = tested on: U251 CNS
UACC-257 melanoma = tested on: UACC-257 melanoma
UACC-62 melanoma = tested on: UACC-62 melanoma
UO-31 renal = tested on: UO-31 renal

Structure (SMILES): CC1(C)Cc2c(Br)c(Br)c(Br)c(OCC(O)CN3CCN(c4ccccn4)CC3)c2O1 (stereo not drawn)
- GI50 (786-0 renal): 12.5 µM
- TGI (786-0 renal): 26.1 µM
- GI50 (A498 renal): 14.8 µM
- TGI (A498 renal): 29.5 µM
- GI50 (ACHN renal): 12.5 µM
- TGI (ACHN renal): 91.4 µM
- GI50 (BT-549 breast): 11.6 µM
- TGI (BT-549 breast): 26 µM
- GI50 (CCRF-CEM leukemia): 3.81 µM
- TGI (CCRF-CEM leukemia): > 100 µM
- GI50 (COLO 205 colon): 15 µM
- TGI (COLO 205 colon): 34.4 µM
- GI50 (DU-145 prostate): 14.4 µM
- TGI (DU-145 prostate): 30.6 µM
- GI50 (EKVX NSCLC): 11.3 µM
- TGI (EKVX NSCLC): 43.2 µM
- GI50 (HCC-2998 colon): 3.68 µM
- TGI (HCC-2998 colon): 13.7 µM
- GI50 (HCT-116 colon): 5.8 µM
- TGI (HCT-116 colon): 23.5 µM
- GI50 (HCT-15 colon): 10.9 µM
- TGI (HCT-15 colon): 26.5 µM
- GI50 (HL-60(TB) leukemia): 2.8 µM
- TGI (HL-60(TB) leukemia): 11.1 µM
- GI50 (HOP-62 NSCLC): 13.2 µM
- TGI (HOP-62 NSCLC): 27.7 µM
- GI50 (HOP-92 NSCLC): 4.87 µM
- TGI (HOP-92 NSCLC): 19.8 µM
- GI50 (HS 578T breast): 18.6 µM
- TGI (HS 578T breast): 39.2 µM
- GI50 (HT29 colon): 5.5 µM
- TGI (HT29 colon): 18 µM
- GI50 (IGROV1 ovarian): 10.7 µM
- TGI (IGROV1 ovarian): 26 µM
- GI50 (K-562 leukemia): 4.1 µM
- TGI (K-562 leukemia): 20.3 µM
- GI50 (KM12 colon): 7.78 µM
- TGI (KM12 colon): 24.5 µM
- GI50 (LOX IMVI melanoma): 9.22 µM
- TGI (LOX IMVI melanoma): 21.4 µM
- GI50 (M14 melanoma): 13.3 µM
- TGI (M14 melanoma): 29.7 µM
- GI50 (MALME-3M melanoma): 17 µM
- TGI (MALME-3M melanoma): 36.9 µM
- GI50 (MCF7 breast): 10.3 µM
- TGI (MCF7 breast): 22.4 µM
- GI50 (MDA-MB-231 breast): 12.3 µM
- TGI (MDA-MB-231 breast): 28.2 µM
- GI50 (MDA-MB-435): 14.3 µM
- TGI (MDA-MB-435): 33.6 µM
- GI50 (MOLT-4 leukemia): 3.19 µM
- TGI (MOLT-4 leukemia): 19 µM
- GI50 (NCI-H226 lung): 15.3 µM
- TGI (NCI-H226 lung): 38.2 µM
- GI50 (NCI-H23 lung): 13.4 µM
- TGI (NCI-H23 lung): 32 µM
- GI50 (NCI-H460 lung): 9.43 µM
- TGI (NCI-H460 lung): 22.9 µM
- GI50 (NCI-H522 lung): 16.8 µM
- TGI (NCI-H522 lung): 35.5 µM
- GI50 (NCI/ADR-RES ovarian): 16.3 µM
- TGI (NCI/ADR-RES ovarian): 42.6 µM
- GI50 (OVCAR-3 ovarian): 9.54 µM
- TGI (OVCAR-3 ovarian): 23.4 µM
- GI50 (OVCAR-4 ovarian): 12.1 µM
- TGI (OVCAR-4 ovarian): 26.7 µM
- GI50 (OVCAR-5 ovarian): 16.2 µM
- TGI (OVCAR-5 ovarian): 31.3 µM
- GI50 (OVCAR-8 ovarian): 20.9 µM
- TGI (OVCAR-8 ovarian): 45.3 µM
- GI50 (PC-3 prostate): 5.58 µM
- TGI (PC-3 prostate): 22.5 µM
- GI50 (SF-268 CNS): 12.9 µM
- TGI (SF-268 CNS): 39.6 µM
- GI50 (SF-295 CNS): 6.11 µM
- TGI (SF-295 CNS): 21.4 µM
- GI50 (SF-539 CNS): 13.6 µM
- TGI (SF-539 CNS): 29.2 µM
- GI50 (SK-MEL-2 melanoma): 4.95 µM
- TGI (SK-MEL-2 melanoma): 19.2 µM
- GI50 (SK-MEL-28 melanoma): 18 µM
- TGI (SK-MEL-28 melanoma): 32.7 µM
- GI50 (SK-MEL-5 melanoma): 10.8 µM
- TGI (SK-MEL-5 melanoma): 23.1 µM
- GI50 (SK-OV-3 ovarian): 33.2 µM
- TGI (SK-OV-3 ovarian): > 100 µM
- GI50 (SN12C renal): 14.4 µM
- TGI (SN12C renal): 28.4 µM
- GI50 (SNB-19 CNS): 20.8 µM
- TGI (SNB-19 CNS): 49.6 µM
- GI50 (SNB-75 CNS): 16.3 µM
- TGI (SNB-75 CNS): 39 µM
- GI50 (SR leukemia): 4.38 µM
- TGI (SR leukemia): 24.7 µM
- GI50 (SW-620 colon): 15.2 µM
- TGI (SW-620 colon): 29.2 µM
- GI50 (T-47D breast): 18.3 µM
- TGI (T-47D breast): > 100 µM
- GI50 (TK-10 renal): 14.3 µM
- TGI (TK-10 renal): 30.8 µM
- GI50 (U251 CNS): 11.3 µM
- TGI (U251 CNS): 23.3 µM
- GI50 (UACC-257 melanoma): 16.6 µM
- TGI (UACC-257 melanoma): 39.7 µM
- GI50 (UACC-62 melanoma): 14.1 µM
- TGI (UACC-62 melanoma): 28.1 µM
- GI50 (UO-31 renal): 11 µM
- TGI (UO-31 renal): 24 µM
